Source: ChEMBL document CHEMBL1137944, “Imidazole derivatives as new potent and selective 20-HETE synthase inhibitors” (Bioorg Med Chem Lett, 2004)

Key:
[1] = target: Cytochrome P450 2D6 (Homo sapiens, UniProt P10635); test: Inhibition of cytochrome P450 2D6
[2] = Inhibition of 20-HETE synthesis in human renal microsomes; design: species or system Microsome
[3] = target: T1, Cytochrome P450 1A2 (Homo sapiens, UniProt P05177); test: Inhibition of cytochrome P450 1A2
T1 sequence (P05177 whole entry): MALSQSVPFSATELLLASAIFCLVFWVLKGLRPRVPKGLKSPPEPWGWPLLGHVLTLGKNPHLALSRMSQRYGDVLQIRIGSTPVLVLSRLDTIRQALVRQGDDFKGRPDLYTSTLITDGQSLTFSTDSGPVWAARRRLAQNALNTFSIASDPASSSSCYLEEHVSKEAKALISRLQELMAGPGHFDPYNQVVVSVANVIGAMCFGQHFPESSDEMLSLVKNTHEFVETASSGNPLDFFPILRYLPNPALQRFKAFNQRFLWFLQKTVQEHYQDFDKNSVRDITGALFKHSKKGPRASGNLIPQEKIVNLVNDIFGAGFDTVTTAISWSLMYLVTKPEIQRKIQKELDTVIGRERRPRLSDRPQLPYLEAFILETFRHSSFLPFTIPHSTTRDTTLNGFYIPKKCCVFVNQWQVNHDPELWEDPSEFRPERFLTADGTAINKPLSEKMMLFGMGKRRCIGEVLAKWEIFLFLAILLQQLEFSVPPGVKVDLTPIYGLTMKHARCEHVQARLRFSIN

[4] = Distribution coefficient of compound was evaluated at pH 6.8; conditions: octanol/water
[5] = target: Cytochrome P450 3A4 (Homo sapiens, UniProt P08684); test: Inhibition of cytochrome P450 3A4
[6] = target: Cytochrome P450 2C19 (Homo sapiens, UniProt P33261); test: Inhibition of cytochrome P450 2C19
[7] = target: Cytochrome P450 2C9 (Homo sapiens, UniProt P11712); test: Inhibition of cytochrome P450 2C9
Cytochrome P450 2C9, sequence (P11712 whole entry): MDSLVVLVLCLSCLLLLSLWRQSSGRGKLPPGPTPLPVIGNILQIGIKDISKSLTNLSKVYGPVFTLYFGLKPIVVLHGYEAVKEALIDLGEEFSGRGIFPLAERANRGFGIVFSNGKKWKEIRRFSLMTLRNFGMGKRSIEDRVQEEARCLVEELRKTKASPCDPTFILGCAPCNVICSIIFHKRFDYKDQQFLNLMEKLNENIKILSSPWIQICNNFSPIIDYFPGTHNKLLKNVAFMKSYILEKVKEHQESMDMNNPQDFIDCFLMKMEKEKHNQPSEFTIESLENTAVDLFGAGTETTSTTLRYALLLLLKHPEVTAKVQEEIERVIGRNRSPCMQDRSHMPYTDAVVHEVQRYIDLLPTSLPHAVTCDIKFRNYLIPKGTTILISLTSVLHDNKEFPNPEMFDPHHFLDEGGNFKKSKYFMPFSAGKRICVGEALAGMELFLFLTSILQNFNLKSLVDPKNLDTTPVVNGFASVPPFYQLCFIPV

Cytochrome P450 2D6, sequence (P10635 whole entry): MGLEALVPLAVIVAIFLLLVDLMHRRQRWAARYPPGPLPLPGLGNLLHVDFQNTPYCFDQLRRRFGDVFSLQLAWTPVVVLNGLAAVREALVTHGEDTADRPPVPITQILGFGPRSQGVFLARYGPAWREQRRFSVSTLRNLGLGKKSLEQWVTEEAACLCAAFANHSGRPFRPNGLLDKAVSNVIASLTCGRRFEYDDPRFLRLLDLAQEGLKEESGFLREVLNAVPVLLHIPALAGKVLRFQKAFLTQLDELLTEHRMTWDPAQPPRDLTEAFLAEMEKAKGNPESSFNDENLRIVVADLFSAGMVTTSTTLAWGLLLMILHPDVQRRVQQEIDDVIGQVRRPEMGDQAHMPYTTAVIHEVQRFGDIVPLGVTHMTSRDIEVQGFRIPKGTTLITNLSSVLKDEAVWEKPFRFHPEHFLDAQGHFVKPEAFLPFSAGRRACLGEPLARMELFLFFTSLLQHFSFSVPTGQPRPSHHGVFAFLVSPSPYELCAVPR
Cytochrome P450 2C19, sequence (P33261 whole entry): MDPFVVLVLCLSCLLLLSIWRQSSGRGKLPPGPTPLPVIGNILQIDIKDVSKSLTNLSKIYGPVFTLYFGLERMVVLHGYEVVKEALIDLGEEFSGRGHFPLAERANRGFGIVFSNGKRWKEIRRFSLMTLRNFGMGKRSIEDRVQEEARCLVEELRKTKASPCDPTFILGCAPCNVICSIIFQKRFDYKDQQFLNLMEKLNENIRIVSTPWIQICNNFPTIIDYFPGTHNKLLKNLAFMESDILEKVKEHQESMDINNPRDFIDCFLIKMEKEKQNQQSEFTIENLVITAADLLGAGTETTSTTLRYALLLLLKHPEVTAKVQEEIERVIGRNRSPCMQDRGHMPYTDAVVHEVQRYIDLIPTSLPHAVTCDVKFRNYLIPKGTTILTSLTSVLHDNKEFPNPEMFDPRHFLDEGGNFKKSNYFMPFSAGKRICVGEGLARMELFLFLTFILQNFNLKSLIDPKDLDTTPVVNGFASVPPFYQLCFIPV
Cytochrome P450 3A4, sequence (P08684 whole entry): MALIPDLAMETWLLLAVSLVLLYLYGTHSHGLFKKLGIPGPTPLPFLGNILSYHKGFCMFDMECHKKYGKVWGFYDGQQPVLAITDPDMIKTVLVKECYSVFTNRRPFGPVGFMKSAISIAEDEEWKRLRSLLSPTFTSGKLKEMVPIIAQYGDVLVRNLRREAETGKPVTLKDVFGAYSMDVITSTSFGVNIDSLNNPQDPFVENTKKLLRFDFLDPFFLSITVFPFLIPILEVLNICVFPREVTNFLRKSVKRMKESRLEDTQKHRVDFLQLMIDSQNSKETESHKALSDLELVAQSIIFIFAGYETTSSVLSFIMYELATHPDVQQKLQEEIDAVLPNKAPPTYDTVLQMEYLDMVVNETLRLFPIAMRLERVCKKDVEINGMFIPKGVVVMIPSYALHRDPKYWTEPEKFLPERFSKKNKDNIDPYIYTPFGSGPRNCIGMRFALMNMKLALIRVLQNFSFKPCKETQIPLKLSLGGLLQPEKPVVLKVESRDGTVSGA

Row | IC50 [1] | IC50 [2] | IC50 [3] | logD [4] | IC50 [5] | SMILES | IC50 [6] | IC50 [7]
1 | 0.4 µM | 0.051 µM | 3.4 µM | -0.41 | 39 µM | CN(C)CCCOc1ccc(-n2ccnc2)cc1 |  | 
2 | 1.05 µM | 0.387 µM | 15 µM | -0.08 | > 100 µM | CN(C)CCOc1ccc(-n2ccnc2)cc1 |  | 
3 | 0.41 µM | 0.0022 µM | 0.8 µM | 0.51 | 4.46 µM | CN(C)CCCCCCOc1ccc(-n2ccnc2)cc1 |  | 
4 | 3.2 µM | 0.016 µM | 2.24 µM | 2.27 | > 100 µM | CCOC(=O)N1CCN(CCOc2ccc(-n3ccnc3)cc2)CC1 | 0.469 µM | 1.44 µM
5 |  | 0.0089 µM |  |  |  | CCCCc1ccc(/N=C/NO)c(C)c1 |  | 
6 | 0.399 µM | 0.0086 µM | 1.48 µM | 0.91 | 5.67 µM | c1cn(-c2ccc(OCCN3CCOCC3)cc2)cn1 | 0.091 µM | 1.81 µM
7 |  | 0.0077 µM |  |  |  | CCCCCCOc1ccc(-n2ccnc2)cn1 |  | 

Row | SMILES | IC50 [1] | IC50 [2] | IC50 [3] | logD [4] | IC50 [5] | IC50 [6] | IC50 [7]
8 | c1cncc(CCCOc2ccc(-n3ccnc3)cc2)c1 | 1.3 µM | 0.0011 µM | < 0.046 µM | 2.85 | 0.417 µM | < 0.046 µM | 0.185 µM
9 | c1ccc(CCCOc2ccc(-n3ccnc3)cc2)nc1 | 0.62 µM | 0.0021 µM | < 0.046 µM | 2.84 | 0.252 µM | < 0.046 µM | 0.129 µM
10 | c1cc(CCCOc2ccc(-n3ccnc3)cc2)ccn1 | 1.04 µM | 0.0011 µM | < 0.046 µM | 2.81 | 0.344 µM | < 0.046 µM | 0.101 µM
11 | c1ccc(COc2ccc(-n3ccnc3)cc2)nc1 | 1.04 µM | 0.0045 µM | 0.12 µM | 1.99 | 0.63 µM | < 0.046 µM | 0.13 µM
